Assay results published in ChEMBL document CHEMBL3988442, “University of Dundee, Small-Polar-MMV Screening Library” (2021).

Experiment: In vitro enzyme assay to detect hydrolysis of chlorophenol red-beta-D-[…] directly proportional to the number of Toxoplasma stably expressing beta-galactosidase
Type: functional, organism-based, Toxoplasma gondii
Settings: Toxoplasma gondii

Compound	IC50 [µM]
COC(=O)c1cnc(F)cn1	> 50.1
Cc1ccc(C(=O)NCCCNCCCN(C)C)cn1	> 50.1
Cc1nnc2n1N=C(c1ccccc1)CS2	> 50.1
CCNC1CCS(=O)(=O)C1 (stereo unspecified)	> 50.1
CN1CCCN(C(=O)COc2ccc(Br)cc2)CC1	> 50.1
CN[C@@H]1COc2ccccc2[C@H](O)C1	> 50.1
CC1CN(C)CCC1=O (stereo unspecified)	> 50.1
Cc1ccc(F)cc1C(=O)NC1CCCNC1 (stereo unspecified)	> 50.1
Cc1ccc(NC(=O)CCCNC(=O)C2CC2)cc1	> 50.1
O=C1NCCN(C(=O)c2ccc(Br)o2)C1c1cccs1 (stereo unspecified)	> 50.1
CCN(CC)Cc1nnnn1-c1ccccc1	> 50.1
Cn1nnnc1SCCNC(=O)c1cc(Cl)ccc1F	> 50.1
CCN1CCc2nc(NC(=O)c3ccncc3)sc2C1	> 50.1
Fc1ccccc1CN1CCn2ccnc2C1	> 50.1
CC(C)Cn1cc(NC(=O)N2CCC(O)C2)cn1 (stereo unspecified)	> 50.1
C1CN[C@@H]2CNC[C@@H]2C1	> 50.1
CCc1cnc(CNC)s1	> 50.1
COc1ncccc1C(=O)N1CCc2ccccc2C1	> 50.1
NCCc1cc(C(F)(F)F)ccn1	> 50.1
Cc1cncc(C(=O)N2CCCC2C(C)(C)O)c1 (stereo unspecified)	> 50.1
CNCc1ccc(N)nc1	> 50.1
CC(C)(CO)C(N)c1ccccc1 (stereo unspecified)	> 50.1
CC(=O)c1cccc(OCC(=O)Nc2cc(C)on2)c1	> 50.1

Compound	IC50 [µM]
CCC(=O)NC1CCCc2nc(N(C)C)ncc21 (stereo unspecified)	> 50.1
CCC(=O)c1cccc(OC)n1	> 50.1
N#Cc1ccccc1NC(=O)CCN1CCCC(O)C1 (stereo unspecified)	> 50.1
CC(=O)NCCCS(=O)(=O)c1ncccc1Cl	> 50.1
NCCN1CCC(C(N)=O)CC1	> 50.1
O=C(NC1CCCC1)c1cnccn1	> 50.1
COCCN(CCOC)CC(=O)N(C)C	> 50.1
NCCC(=O)Nc1ccccc1	> 50.1
CN1CCC(NC(=O)c2cc3ccccc3s2)C1=O (stereo unspecified)	> 50.1
NC1CN(S(=O)(=O)c2ccc3c(c2)OCCO3)C1	> 50.1
O=C(Nc1ccc(Br)cn1)C1CCCNC1 (stereo unspecified)	> 50.1
COCCC1(CN2CCC(C(N)=O)C2)CCC1 (stereo unspecified)	> 50.1
CC(C)CSc1nnc(CN2CCCC2=O)o1	> 50.1
CC1CCN(CCNC(=O)Nc2ncnn2C)CC1	> 50.1
CC(C)C(O)CCNS(=O)(=O)c1ccccc1 (stereo unspecified)	> 50.1
Cc1ncc(C(=O)N2C[C@@H]3CCCN[C@@H]3C2)c(C)n1	> 50.1
Cc1ccc(CNC(=O)C2CCCCC(=O)N2)o1 (stereo unspecified)	> 50.1
c1cc(SCCOCC2CCCO2)ccn1 (stereo unspecified)	> 50.1
CC(=O)c1ccc(OCC(O)Cn2ccnc2)cc1 (stereo unspecified)	> 50.1
CCn1nc(-c2ccc(F)cc2)oc1=O	> 50.1
CC(C)n1ccc(CN2C(=O)CC(C)(C)C2=O)n1	> 50.1
O=C(OCCOc1cccnc1)C1CC1	> 50.1
CCC(CC)(CCO)CNC(=O)c1cncc(C)c1	> 50.1

Compound	IC50 [µM]
O=C1c2ccc(F)cc2C(=O)N1Cc1nnsc1Cl	> 50.1
Cn1cc(CN)c(C(F)(F)F)n1	> 50.1
CC(C)CNC(=O)CSc1n[nH]c(-c2ccccn2)n1	> 50.1
Nc1cccnc1NCc1cccnc1	> 50.1
Cc1ccc(C(=O)N2CCN(C(C)C(N)=O)CC2)s1 (stereo unspecified)	> 50.1
N#Cc1ccnc(SCC(=O)Nc2ccncc2)c1	> 50.1
CNc1cc(-c2cccc(OC)c2OC)nc(N)n1	> 50.1
OCCNc1nc2ccccc2s1	> 50.1
CNc1cc(-c2cccc(OC)c2)[nH]n1	> 50.1
O=C(CC1CCCC1)NCCc1noc(CO)n1	> 50.1
OC1(Cc2ccccc2F)CCNC1 (stereo unspecified)	> 50.1
CCC(CC)C(O)CNC(=O)NCC1CC1 (stereo unspecified)	> 50.1
Cc1cncc(C(N)=O)c1	> 50.1
O=C(NCc1nc(C2CC2)no1)Nc1nncs1	> 50.1
Nc1ccc(CN2CCN(CCO)CC2)cn1	> 50.1
COc1ccc(CC#N)cc1S(C)(=O)=O	> 50.1
Nc1c[nH]nc1-c1ccccn1	> 50.1
CCCC(N)C(=O)N(C)Cc1cccc(N(C)C)c1 (stereo unspecified)	> 50.1
COc1ccc(CC(=O)NCC2CCCNC2)cc1F (stereo unspecified)	> 50.1
Cc1ocnc1CNC(=O)c1ccon1	> 50.1
COCc1ccccc1C(=O)N1CCCC(O)C1 (stereo unspecified)	> 50.1
CC(=O)Nc1ccc(S(=O)(=O)N2CCC(N)CC2)cc1	> 50.1
CCCC(=O)N1CCN(C(=O)NCC)CC1	> 50.1

Compound	IC50 [µM]
Cc1nc([C@H]2CCCN2)cs1	> 50.1
CSCc1ccc(C(=O)N(C)Cc2cnccn2)o1	> 50.1
Cc1nnc(SCCNC(=O)CC2C=CS(=O)(=O)C2)s1 (stereo unspecified)	> 50.1
CCc1nc(C(C)(C)N)[nH]c(=O)c1C	> 50.1
NC1CCN(Cc2ccccc2)C1=O (stereo unspecified)	> 50.1
COc1cccc(CNCC2CCOC2)c1 (stereo unspecified)	> 50.1
OC[C@@H]1CCCN1Cc1ccc(F)c2cccnc12	3.76
CC(CN)C(=O)Nc1cn[nH]c1 (stereo unspecified)	> 50.1
Cc1cc(=O)cc(C(=O)NCCC(C)n2ccnc2)o1 (stereo unspecified)	> 50.1
O=C(N[C@H]1COC[C@@H]1N1CCCCC1)c1cnc[nH]1	> 50.1
CN(C)c1cc(CNC(=O)c2nccnc2N)ccn1	> 50.1
CN(Cc1cccc(C#N)c1)Cc1ccnc(N)c1	> 50.1
CS(=O)(=O)CCN1CCC(C(N)=O)CC1	> 50.1
CN(C)C(=O)CNC(CO)c1ccc(Cl)c(F)c1 (stereo unspecified)	> 50.1
NCc1ccnc(N2CCCC2)n1	> 50.1
O=C(c1cccnc1)c1ncc[nH]1	> 50.1
CCc1ccccc1NC(=O)C1=NN(C)C(=O)CC1	> 50.1
CC1(C)CC(n2cccn2)C(C)(C)O1 (stereo unspecified)	> 50.1
CC(C)(CO)NCC(O)c1cccc(F)c1 (stereo unspecified)	> 50.1
CSCC(CCO)NC(=O)c1cc(F)ccc1O (stereo unspecified)	> 50.1
NC1CCN(CC(F)F)CC1	> 50.1
CSCC(=O)NC(C1CCNCC1)[C@H]1C[C@@H](O)C1 (stereo partly specified)	> 50.1
N#CCCNC(=O)CN1CCCC1	> 50.1

Compound	IC50 [µM]
Cc1cc(C(=O)Nc2cccc(C[S+](C)[O-])c2)on1 (stereo unspecified)	> 50.1
O=C(CC(F)(F)F)NC1CCN(CC2CC2)C1 (stereo unspecified)	> 50.1
CSC(C)C(=O)N1CCCN(c2cccnn2)CC1 (stereo unspecified)	> 50.1
CCN1CCN(Cc2nnnn2C2CC2)CC1	> 50.1
CC(C)(C(=O)N1CCC(N)CC1)c1cccc(F)c1	> 50.1
O=C(CN1CCN(C(=O)c2ccco2)CC1)NC1CC1	> 50.1
COc1ccc(C)cc1CC(=O)N1CCN(C)CC1	> 50.1
Cn1cccc1C(=O)OCCCN1CCOCC1	> 50.1
Cc1ccnc(NC(=O)N(C)Cc2ccncc2)c1	> 50.1
CCCNC(=O)NCCc1noc(-c2cccnc2)n1	> 50.1
CSc1ccccc1NCC(=O)NC1CC1	> 50.1
CC(C)CCC(=O)N1CCC(C)(CO)C1 (stereo unspecified)	> 50.1
COC(=O)c1cnc2[nH]nc(C)c2c1	> 50.1
CN(C)[C@H]1CCCCN(C(=O)Cn2cc(Cl)cn2)C1	> 50.1
CC(C)(CO)NCC(O)c1cccc(Cl)c1 (stereo unspecified)	> 50.1
CC(=O)NCc1cccc(OCc2ccccn2)c1	> 50.1
Cc1ccc(CN2CCC(C3CCNC3)CC2)nc1 (stereo unspecified)	> 50.1
Cc1cc(C(=O)Nc2ccc3c(c2)CC(=O)N3)c(C)o1	> 50.1
Cc1nccn1CCNc1cc(C2CC(O)C2)ncn1 (stereo unspecified)	> 50.1
Cc1ccoc1C(=O)Nc1cccc(CO)n1	> 50.1
COCCNC(=O)Nc1cc(Cl)ccc1OC	> 50.1
Cc1cc(-c2nc(C3CCOC3)no2)n(C)n1 (stereo unspecified)	> 50.1
CNC(=O)NC(=O)CCN1CCCC(C)C1 (stereo unspecified)	> 50.1

Compound	IC50 [µM]
CCCc1ccc(C(=O)N[C@@H]2CCOC[C@H]2O)cc1	> 50.1
COc1ccc(CCNC(=O)NCCCC(N)=O)cc1	> 50.1
COCc1nn(CC(=O)c2cc(F)ccc2F)c(=O)o1	> 50.1
CC1CCC(NCCO)CC1 (stereo unspecified)	> 50.1
CC(C)(C)OC(=O)NCC1CC(C(N)=O)=NO1 (stereo unspecified)	> 50.1
CCc1cnc(N2CCNCC2)s1	> 50.1
COc1ccc(-c2cncc(N)c2)cc1CO	> 50.1
NC(=O)N1CCCCCC1C1CCNCC1 (stereo unspecified)	> 50.1
CCOCC(=O)N1CCCn2ccnc2C1C(C)C (stereo unspecified)	> 50.1
CS(=O)(=O)Nc1ccccc1CNC(=O)c1ccoc1	> 50.1
O=C(NC1CCCSC1)N(CCO)C1CC1 (stereo unspecified)	> 50.1
COc1ccc(NCC(=O)N2CCNC(=O)C2)c(C)c1	> 50.1
O=C(c1cnsn1)N1CCN(C2CC2)C(=O)C1	> 50.1
CN1C(=O)c2cccn2CC1CNC(=O)c1ccco1 (stereo unspecified)	> 50.1
O=C(NCCc1ncc[nH]1)c1cccnc1SC(F)F	> 50.1
O=C1CN(CC(=O)Nc2c(Cl)cccc2Cl)CCN1	> 50.1
CCC(=O)c1nccn1C	> 50.1
CCCNS(=O)(=O)c1nc2nc(C)cc(C)n2n1	> 50.1
CCC(CC)(CC)SCC(=O)N1CCNC(=O)C1	> 50.1
CCNC(=O)CN1CCCC(c2nccn2CC)C1 (stereo unspecified)	> 50.1
CCNC(C)(C)C(=O)N(C)Cc1ccc(OC)c(F)c1	> 50.1
O=C(NCc1ccc2c(c1)OCO2)n1ccnc1	> 50.1
Cc1cc2cc(C(=O)N3CC[C@@H](N)[C@H](O)C3)ccc2o1	> 50.1

Compound	IC50 [µM]
CC(C)COCCC(=O)Nc1nccs1	> 50.1
OC1(CNCCOCc2ccc(Cl)cc2)CCCNC1 (stereo unspecified)	> 50.1
CN(C)[C@@H]1CN(C(=O)c2ccccc2Br)C[C@H]1CO	> 50.1
COC(C)CCC(=O)NCc1cn2ccccc2n1 (stereo unspecified)	> 50.1
CCN1CCCC1CNCC(=O)N(C)C (stereo unspecified)	> 50.1
Cc1cc(C(=O)NCCc2noc(C3CC3)n2)nn1C	> 50.1
COc1cc(Br)c(CN)cc1OC	> 50.1
CCN1C[C@H](NC(=O)c2snnc2C(C)C)[C@@H](OC)C1	> 50.1
CCOc1ccc(C(=O)N2CCC(N)CC2)cc1	> 50.1
CNc1cccnc1N(C)C	> 50.1
COc1ccccc1NC(=O)CC#N	> 50.1
CC(c1cccs1)n1nccc1N (stereo unspecified)	> 50.1
Cc1ccc(C(=O)N2CCN(c3nccn3C)CC2)o1	> 50.1
CC(=O)N1N=C(c2cccnc2)CC1c1ccco1 (stereo unspecified)	> 50.1
CS(=O)(=O)NCc1ccc(CN2CCCC2=O)cc1	> 50.1
Cc1nc2c(c(NCc3ccc(N)nc3)n1)CCCC2	> 50.1
c1nc(N2CCNCC2)c2sccc2n1	> 50.1
Cc1cnc(N)c(C)c1	> 50.1
